Test results as given in article PMC6563140, “Azaphilones from the Marine Sponge-Derived Fungus Penicillium sclerotiorum OUCMDZ-3839” (Marine Drugs, 2019).

Assays:
α-glycosidase [1] = assay: PNPG enzyme inhibition assay, reference inhibitor; type: biochemical
α-glycosidase [2] = assay: PNPG enzyme inhibition assay; type: biochemical

IC50 (α-glycosidase [2]) [µM] | Compound | IC50 (α-glycosidase [1]) [mM]
 | C[C@H]1O[C@H](O[C@H]2[C@H](O)[C@@H](O)[C@@H](O[C@H]3[C@H](O)[C@@H](O)C(O)O[C@@H]3CO)O[C@@H]2CO)[C@H](O)[C@@H](O)[C@@H]1N[C@H]1C=C(CO)[C@@H](O)[C@H](O)[C@H]1O (stereo partly drawn) [acarbose] | 1.1
17.3 | CC[C@H](C)/C=C(C)/C=C/C1=CC2=C(Cl)C(=O)[C@]3(C)OC(=O)[C@@H](C(C)=O)[C@@H]3C2=CO1 [compound 11, isochromophilone I] | 
166 | CC[C@H](C)/C=C(C)/C=C/C1=CC2=C(Cl)C(=O)[C@](C)(OC(C)=O)C(=O)C2=CN1 [compound 14, scleratioramine] | 
